Data as given in patent publication US20120010296A1, “TREATING VARIOUS DISORDERS WITH CATECHOL-O-METHYL-TRANSFERASE INHIBITORS” (priority 2009, published 2012).
One block for each compound: values may come before it.

Key:
Format in all cases: in vivo, human
[1] = Example 3: laboratory testing of liver aminotransferases every two weeks; settings: one patient
Description: (§1) Over a period of two years, patient underwent serial trials of several medications. […] “I have gone to stores several times without stealing anything.” After 6 weeks, the benefit seemed to wane and their dose was increased to 100 mg po bid. […] They have been maintained on that dose for 5 months without stealing. They report mild urges to steal when in a store but feels able to control their behavior. Patient's K-SAS score has consistently been 6-8 over the last few months.

[2] = tested on: nicotine dependent problem gambling subjects; assay: Change in cigarette smoking in nicotine dependent problem gambling subjects taking tolcapone; settings: 10-Week Endpoint (n = 6); baseline 25.8 ± 11.1
[3] = tested on: kleptomania; assay: Example 3: case report, treatment of kleptomania (K-SAS, stealing behavior); settings: one patient
Description: Patient was a married, college-educated person with no children. They presented for psychiatric evaluation for “out-of-control” shoplifting that had been going on since early adulthood. Although never arrested for their shoplifting, they reported stealing approximately 90% of the times when they went shopping. […] They denied wanting or needing the items and in fact usually discarded them in the trash when they returned home. They reported that when they initially stole items in early adulthood the act gave them a “rush” or a thrill. Over the years, they described the behavior as “automatic” and without awareness for the consequences.
The diagnosis of kleptomania was confirmed using the Structured Clinical Interview for Kleptomania. Patient also underwent a comprehensive psychiatric evaluation using the Structured Clinical Interview for DSM-IV (SCID-I and SCID-II). […] Severity of kleptomania was assessed using the Kleptomania Symptom Assessment Scale (K-SAS) at baseline and periodically through […] follow-up. The K-SAS score at baseline was 28 (moderate severity).
as §1

[4] = tested on: pathological gambling; assay: Example 2: tolcapone study in pathological gambling, primary and secondary measures
Description: The effectiveness of COMT inhibitors to treat PG can be determined using known assessments, e.g., the Clinical Global Impression Scale (CGI), Yale Brown Obsessive Compulsive Scale Modified for Pathological Gambling (PG-YBOCS), the Gambling Symptom Assessment Scale (G-SAS), the Sheehan Disability Scale (SDS), the Hamilton Anxiety Rating Scale (HAM-A), the Hamilton Depression Rating Scale (HAM-D), the Perceived Stress Scale (PSS; used at baseline and study endpoint), and the Quality of Life Inventory (QOLI; used at baseline and study endpoint). In Example 2, twelve subjects have been enrolled with four of these individuals currently receiving tolcapone and yet to complete the study. […] In most open-label studies of pathological gambling, response rates are approximately 60-65%. Decrease in gambling symptoms was from a mean of 20.4 to 9.25 at endpoint using the PG-YBOCS. This compares to a mean decrease of 6 points on this same scale when used in treatment studies involving other medications.

[5] = tested on: attention deficit disorder (ADD); assay: Example 4: case report, treatment of ADD; settings: one patient
Description: Patient was a married, person, currently in nursing school. They have had life-long difficulties with organizing tasks, following through on instructions and completing tasks. Learning in classes and performing school work has been extremely difficult. Patient would tell each and every teacher that they have attention deficit disorder (ADD), they are slow to understand and that they need more time to complete examinations. Patient has been taking methylphenidate ([…]) 10 mg twice a day to cope with these difficulties. […] Patient said “I was able to answer 12 out of 12 questions, that was the first time for me.” After one week, patient increased tolcapone does to 100 mg twice a day. […] They found themself organizing future tasks in orderly manner and also completing the tasks mush more efficiently, something they just have not been able to do prior to now. Their spouse noticed this and commented this to them. […] Patient is much satisfied with the results of the tolcapone treatment. Follow-up interview two weeks post tolcapone 100 mg twice a day: “I got over my classes at 3:[…]/ I stayed '[…] just fired off this assignment. I met all objectives. I got 15 out of 15 points. This has never happened to me before. Prior to tolcapone, I would scramble, hodge-podge, . . . I would just give up. The whole thing is getting better and better. I feel that I can organize things better now.” “Look what my teacher wrote, 'very well organized'.” 30 out of 30, 27 out of 27 points! “I never got these assignments done. I can't explain it but this is phenomenal.” “I am sleeping better now, my anxiety has gone down, I have more energy now.” This is a patient who had been on methylphenidate 10 mg twice a day.

[6] = tested on: pathological gambling; assay: Example 1: open-label tolcapone study in pathological gambling (PG-YBOCS)
Description: The effectiveness of COMT inhibitors to treat PG can be determined using known assessments, e.g., the Clinical Global Impression Scale (CGI), Yale Brown Obsessive Compulsive Scale Modified for Pathological Gambling (PG-YBOCS), the Gambling Symptom Assessment Scale (G-SAS), the Sheehan Disability Scale (SDS), the Hamilton Anxiety Rating Scale (HAM-A), the Hamilton Depression Rating Scale (HAM-D), the Perceived Stress Scale (PSS; used at baseline and study endpoint), and the Quality of Life Inventory (QOLI; used at baseline and study endpoint). In example 1, six subjects have been enrolled in a study to determine the effects of administration of the COMT inhibitor tolcapone on gambling. Subjects receive 100 mg-300 mg of tolcapone by mouth per day for 8 weeks, which can be administered either once per day for the 100 mg dose, or multiple (e.g., 3) times per day for higher doses (e.g., 300 mg dose). Five of the 6 (83%) subjects have “responded” (i.e., greater than 35% on the primary outcome measure, the PG-YBOCS) to tolcapone. In most open-label studies of pathological gambling, response rates are approximately 65%. Decrease in gambling symptoms was from a mean of 20.4 to 8.0 at endpoint using the PG-YBOCS. This compares to a mean decrease of 6 points on this same scale when used in treatment studies involving other medications. The mean effective dose was 140 mg/day.

[7] = tested on: pathological gambling; assay: Example 2: performance on cognitive tasks (IDED, SST) in pathological gamblers treated with tolcapone
Description: (§2) The cognitive tasks require subjects to disengage responding from the previously correct dimension in favor of responding to a novel dimension. Failure on the ED task may be due to the inability of the individual to disengage from a previously rewarding process thus perseverating on the incorrect response pattern.

[8] = tested on: pathological gambling; assay: Example 1 / Tolcapone Study: cognitive tasks (IED set shift, SST) before and after treatment
Description: as §2, with “the” for “the ED”

- changes in alanine aminotransferase or aspartate aminotranferase [1]: no changes
SMILES: Cc1ccc(C(=O)c2cc(O)c(O)c([N+](=O)[O-])c2)cc1 [tolcapone]
- Cigarettes smoked per day (mean ± SD) [2]: 3.3 ± 8.2
- stealing behavior ([3]; 100 mg po bid, after 3 weeks on the higher dose, maintained for 5 months without stealing): no stealing behavior
- K-SAS score ([3]; 100 mg po bid, over the last few months, baseline 28 (moderate severity)): 6-8
- stealing behavior ([3]; 100 mg/day monotherapy, after 3 weeks): significant reductions in stealing behavior
- mean effective dose ([4]; Example 2, pathological gambling, compared to 600 mg/day used for Parkinson's): 141 mg/day
- PG-YBOCS mean at endpoint (decrease in gambling symptoms) ([4]; Example 2, from a baseline mean of 20.4): 9.25
- subjects who responded (greater than 35% on the primary outcome measure, the PG-YBOCS) ([4]; Example 2, seven of 8 subjects who have completed the study): 87.5%
- CGI-Improvement (Investigator), mean (SD) at endpoint ([4]; endpoint): 1.88 (0.83)
- CGI-Improvement (Patient), mean (SD) at endpoint ([4]; endpoint): 2.19 (1.13)
- Clinical Global Impression Severity, mean (SD) at endpoint ([4]; endpoint, baseline 4.38 (0.74), p-value 0.0098): 3 (1.07)
- HAM-A, mean (SD) at endpoint ([4]; endpoint, baseline 8.88 (3.14), p-value 0.052): 5.63 (2.97)
- HAM-D, mean (SD) at endpoint ([4]; endpoint, baseline 9 (2.67), p-value 0.033): 5.63 (3.02)
- PG-YBOCS behavior Subscale score, mean (SD) at endpoint ([4]; endpoint, baseline 9.63 (3.2), p-value 0.0003): 3.63 (3.96)
- PG-YBOCS urges/thought subscale score, mean (SD) at endpoint ([4]; endpoint, baseline 10.88 (2.23), p-value 0.0003): 5.38 (2.33)
- Sheehan Disability Scale total score, mean (SD) at endpoint ([4]; endpoint, baseline 16.75 (6.84), p-value 0.003): 5.38 (5.90)
- PG-YBOCS total score, mean (SD) at endpoint ([4]; endpoint, baseline 20.5 (3.38), p-value 0.0002): 9.25 (5.3)
- G-SAS total score, mean (SD) at endpoint ([4]; endpoint, baseline 27.13 (7.54), p-value 0.045): 18.63 (7.91)
- ADD symptoms reported by the patient ([5]; 100 mg in the morning, added to methylphenidate 10 mg twice a day): improved sense of well-being
- ADD symptoms reported by the patient ([5]; 100 mg twice a day): further improvement in their symptoms
- side effects ([5]; 100 mg twice a day): no side effects
- attentional issues, compared with methylphenidate ([5]; chose to stay on tolcapone instead of methylphenidate): works better for their attentional issues
- mean effective dose ([6]; Example 1, pathological gambling): 140 mg/day
- subjects who responded (greater than 35% on the primary outcome measure, the PG-YBOCS) ([6]; Example 1, 100 mg-300 mg per day by mouth for 8 weeks, five of the 6 subjects): 83%
- PG-YBOCS mean at endpoint (decrease in gambling symptoms) ([6]; Example 1, from a baseline mean of 20.4): 8.0
- PG-YBOCS, Mean ± SD at EOS ([6]; whole group analysis, after treatment (EOS), baseline 21.5 + 3.11): 10.25 ± 6.18
- extradimensional set shift task (cognitive measures) ([7]; Example 2, neurocognitive results): significant improvement
- SST directional errors at endpoint ([7]; endpoint, baseline 2 ± 3.07): 4.71 ± 8.24
- IDED Stages completed at endpoint ([7]; endpoint, baseline 8.5 ± 0.92): 8.86 ± 0.38
- IDED total errors (adjusted) at endpoint ([7]; endpoint, baseline 26.38 ± 21.84): 20.14 ± 11.77
- SST SSRT at endpoint ([7]; endpoint, baseline 149.8 ± 41.57): 161.37 ± 29.11
- SST median go reaction time at endpoint ([7]; endpoint, baseline 470.5 ± 111.67, in ms (unit assumed)): 476.64 ± 138.11
- IED Total errors (stage 6), ID shift, Mean ± SD at EOS ([8]; EOS, baseline 0.5 ± 1): 0 ± 0
- SST Direction errors on stop and go trials, Mean ± SD at EOS ([8]; EOS, baseline 2.75 ± 4.27): 6.5 ± 11.03
- IED Total errors (stage 8), ED shift, Mean ± SD at EOS ([8]; EOS, baseline 6.75 ± 5.91): 3.5 ± 4.51
- IED Stages completed, Mean ± SD at EOS ([8]; EOS, baseline 9 ± 0): 9 ± 0
- IED Total errors (adjusted), Mean ± SD at EOS ([8]; EOS, baseline 12.75 ± 6.5): 17 ± 7.16
- IED Total errors, Mean ± SD at EOS ([8]; EOS, baseline 12.75 ± 6.5): 17 ± 7.16
- SST Median correct RT on GO trials, Mean ± SD at EOS ([8]; EOS, baseline 530.5 ± 132.91): 529 ± 155.66
- extradimensional set shift task (cognitive measures) ([8]; Example 1): significant improvement

SMILES: CC1(C)O[C@@H]2[C@@H](CO[C@@]3(COS(N)(=O)=O)OC(C)(C)O[C@@H]23)O1 [Topiramate, topiramate]
- K-SAS score (urges to steal) ([3]; monotherapy, 12 weeks at 150 mg/day, baseline 28): 21
